Laboratory results from patent publication US20100069393A1, “METHOD OF TREATMENT AND AGENTS USEFUL FOR SAME” (PRANA BIOTECHNOLOGY LIMITED, priority 2006, published 2010).

What was measured:
[1] = Neurotoxicity assay: MTS viability of primary cortical neuronal cultures; type: cell-based, mouse; details: BL6Jx129sv, mouse, primary cortical neuronal cultures, Neuronal cells, read-out: Cytotoxicity (% viable at 1 and 10 uM); for viability at 4 days, 1 uM: test compound 1 uM; for viability at 4 days, 10 uM: test compound 10 uM
[2] = Cytotoxicity: viability of M17 cells; details: human, M17 neuroblastoma cells, Cytotoxicity (% viable at 1 and 10 uM); for viability at 1 uM: test compound 1 uM; for viability at 10 uM: test compound 10 uM
[3] = Mice plasma concentration; type: in vivo; details: for Mice plasma concentration: presence in plasma at one or two time points (between 30 min and 4 h); for Mice plasma concentration (single dose): one or two time points (between 30 min and 4 h)
[4] = In vivo toxicity, visual observations; details: 30 mg/kg, number of days

SMILES	viability at 4 days, 1 uM [1] [%]	viability at 4 days, 10 uM [1] [%]	viability at 1 uM [2] [%]	viability at 10 uM [2] [%]	Mice plasma concentration [3]	Toxicity at 30 mg/kg [4]	Mice plasma concentration (single dose) [3]
CCNCc1ccc2c(Cl)cc(Cl)c(O)c2n1.Cl	87	56	78.3	44	Up to 403 ng/mL	10 days, none	
O=c1c2c(Cl)cc(Cl)c(O)c2ncn1CCN1CCCC1	104	91	104	101		14 days, 1 of 4 death	Up to 520 ng/mL (single dose)
O=c1c2c(Cl)cc(Cl)c(O)c2ncn1N1CCOCC1	105	70	95.9	80.9	Up to 45.2 ng/mL	10 days, none	
Cn1c(-n2cnc3c(O)c(Cl)cc(Cl)c3c2=O)nc2ccccc21	105	97	107	94.9	Up to 112.4 ng/mL	10 days, none	
Br.CCCn1cnc2c(O)c(Cl)cc(Cl)c2c1=O	102	83	107	98.8	Up to 2641 ng/mL	10 days, none	
O=c1c2c(Cl)cc(Cl)c(O)c2ncn1Nc1ccc(F)cc1F	100	92	105	83.1	Up to 1,130.6 ng/mL	10 days, none	
CC(C)Cn1cnc2c(O)c(Cl)cc(Cl)c2c1=O	99	70	102	75.6	Up to 1802 ng/mL	10 days, none	
OCCN1C=Nc2c(O)c(Cl)cc(Cl)c2C1	107	96	115	119	Up to 8134.8 ng/mL	10 days, none	
Br.CCN(CC)CCn1cnc2c(O)c(Cl)cc(Cl)c2c1=O	107	77	100	70.3		10 days, none	Up to 113.2 ng/mL (single dose)
O=c1c2cccc(O)c2ncn1Cc1cccc(Cn2cnc3c(O)cccc3c2=O)n1			117	106	Up to 128.4 ng/mL	10 days, none	
CC(C)c1cnc2c(O)cccn2c1=O			99.7	45.6	Up to 409 ng/ml ng/mL	10 days, none	
CCn1cnc2c(O)c(I)cc(Cl)c2c1=O			101	50.4	Up to 1802 ng/mL	10 days, 2/4 deaths	
Br.CN(C)Cc1nc2c(O)c(Cl)cc(Cl)c2c(=O)[nH]1			97.4	100	Up to 642.6 ng/mL	10 days, none	
CCCc1cnc2c(O)cccn2c1=O			79.1	45.2	Up to 690 ng/ml ng/mL	10 days, none	
CCCCNC(=O)C1=CN=C2C(O)=C(I)C=CN2C1			85.3	63.4	Up to 27,598 ng/ml ng/mL	10 days, none	
Br.CNCc1nc2c(O)c(Cl)cc(Cl)c2c(=O)n1C			96	90.6	Up to 510.4 ng/mL	10 days, none	
CCCn1cnc2c(O)c(I)ccc2c1=S			89.9	86.2	Up to 1593 ng/ml ng/mL	10 days, none	
CCn1cnc2c(O)c(I)ccc2c1=S			85.7	43	Up to 400 ng/ml ng/mL	10 days, none, 1/4 mild signs	
O=c1c2cccc(O)c2ncn1-c1ccc(Cl)cn1			107	122	Up to 6 ng/mL	10 days, none	
O=C(NCc1ccccc1)c1cnc2c(O)cccn2c1=O			92.7	97.3	Up to 22.2 ng/mL	10 days, none	

SMILES	viability at 4 days, 1 uM [1] [%]	viability at 4 days, 10 uM [1] [%]	viability at 1 uM [2] [%]	viability at 10 uM [2] [%]	Mice plasma concentration [3]	Toxicity at 30 mg/kg [4]	Mice plasma concentration (single dose) [3]
O=c1c2c(Cl)cc(Cl)c(O)c2ncn1Cc1cn2ccccc2n1			109	98.2	Up to 98.3 ng/mL	10 days, none	
O=c1c2c(Cl)cc(Cl)c(O)c2ncn1Cc1cccnc1			106	95.4	Up to 4023.4 ng/mL	10 days, none	
O=c1c2c(Cl)cc(Cl)c(O)c2ncn1Cc1ccncc1			105	90.4	Up to 2181.1 ng/mL	10 days, none	
Cn1ccnc1Cn1cnc2c(O)c(Cl)cc(Cl)c2c1=O			108	97.6	Up to 13214.8 ng/mL	10 days, none	
O=c1c2c(Cl)cc(Cl)c(O)c2ncn1-c1cc[nH]n1			126	115	Up to 1477.4 ng/mL	10 days, none	
O=c1c2c(Cl)cc(Cl)c(O)c2ncn1-c1ccc2[nH]ncc2c1			96.2	88.9	Up to 126 ng/mL	10 days, none	
O=c1c2c(Cl)cc(Cl)c(O)c2ncn1Cc1ccn2ccnc2c1			105	105	Up to 1465.4 ng/mL	10 days, none	
Br.CN1CCCC1Cn1cnc2c(O)c(Cl)cc(Cl)c2c1=O (stereo not shown)			107	93.9	Up to 382.5 ng/mL	10 days, none	
O=c1c2c(Cl)cc(Cl)c(O)c2ncn1Cc1nccs1			96	99.8	Up to 441.4 ng/mL	10 days, none	
O=C(O)CCCn1cnc2c(O)c(Cl)cc(Cl)c2c1=O			110	103	Up to 17008 ng/mL	10 days, none	
O=c1c2c(Cl)cc(Cl)c(O)c2ncn1Cc1nc2ccccc2[nH]1			102	100	Up to 2796 ng/mL	10 days, none	
O=c1c2c(Cl)cc(Cl)c(O)c2ncn1Cc1nc2ccccc2s1			111	80.9	Up to 166.1 ng/mL	10 days, none	
Cc1noc(C)c1-n1cnc2c(O)c(Cl)cc(Cl)c2c1=O			106	94.2	Up to 7107 ng/mL	10 days, none	
O=c1c2c(Cl)cc(Cl)c(O)c2ncn1CCNCc1ccncc1			103	105	Up to 1639.8 ng/mL	10 days, none	
CN(C)Cc1nc2c(O)c(Cl)cc(Cl)c2c(=O)n1CC1CC1.Cl			94.4	74.5	Up to 1166.6 ng/mL	10 days, none	
CCn1c(CN(C)C)nc2c(O)c(Cl)cc(Cl)c2c1=O.Cl			99.2	102	Up to 975.9 ng/mL	10 days, none	
Br.CN(C)Cc1nc2c(O)c(Cl)cc(Cl)c2c(=O)n1C			104	111	Up to 492.1 ng/mL	10 days, 1 of 4 mild signs	
O=c1c2c(Cl)cc(Cl)c(O)c2ncn1-c1ccccn1 [drawing 171]	95	81	101	80.5		10 days, none	Up to 142.9 ng/mL (single dose)
Br.CCC(C)n1cnc2c(O)c(Cl)cc(Cl)c2c1=O (stereo not shown) [drawing 185]	104	71	94.3	74.5	Up to 383 ng/mL	10 days, none	
